Consider two molecules from paper PMC4384708, “Molecular imaging of angiogenesis after myocardial infarction by ^111In-DTPA-cNGR and ^99mTc-sestamibi dual-isotope myocardial SPECT” (EJNMMI Research, 2015).

Series [1] is described as follows: ^99mTc-sestamibi perfusion uptake (SUV) per AHA 17 segment, in vivo dual-isotope micro-SPECT. More on the design: species or system Swiss mice. How it is done:
MI was induced in 10- to 12-week old male Swiss mice by ligation of the left anterior descending coronary artery (LAD) (n = 7), as previously described. The angiogenesis imaging protocol was performed 7 days after the LAD ligation. A group of non-operated male Swiss mice (n = 5) was used as control. A variable number of animals were available for analysis per experiment. For SPECT scans, seven MI mice and five control mice were used while for biodistribution purposes ≥5 MI mice and ≥4 control mice were used. Furthermore, a group of six 10- to 12-week old male Swiss mice were bilaterally, subcutaneously implanted in the flanks with Matrigel (Table 1). […] All animals were held under the guidelines of the animal care facility (Maastricht University). All animal experiments were approved by the Committee for Animal Welfare of Maastricht University.
Mice were anesthetised with isoflurane (induction 2.5%; maintenance; 1.5%), a catheter was placed in the tail vein and the animals were positioned in the micro-SPECT camera (MiLabs, Utrecht, The Netherlands).
U-SPECT-II reconstruction software version 2.38 (MiLabs, Utrecht, The Netherlands) was used to reconstruct images. ^99mTc and ^111In images were reconstructed by selecting the photopeak (PP) and background (BG) windows as indicated in Figure 1.
To allow quantification of radiotracer uptake in vivo, conversion factors (CFs) were determined for the 0.6-mm collimator system in a representative phantom (20 ml) for ^99mTc and/or ^111In. During the SPECT reconstruction, the total amount of counts was distributed over the different voxels, resulting in a counts/voxel expression for the average concentration of counts. Taking into account the voxel volume (Vv), the CFs are calculated using equation (a):a ConversionfactorMBq=ActivityconcentrationMBq/ml/SPECTcountspervoxel/Vvml
The PMOD 2.95 cardiac tool PCARD (PMOD Technologies, Zürich, Switzerland) was used to segment the heart in the 17-segment model according to the American Heart Association (AHA) guidelines. For both the ^99mTc-sestamibi and ^111In-DTPA-cNGR images, the uptake was measured for each segment and expressed as mean standardised uptake value (SUVmean) using equation (b).b SUV=SPECTcountspervoxel×CF/VvMBq/ml×Bodyweightg/InjecteddoseMBq
For body weight, we assumed that 1 g of body weight equalled 1 ml.

In another series the test system is CD13. To be noted: cNGR tripeptide vs. linear entity; cited from earlier work. The text has this: In this study, we designed and developed a CD13 molecular imaging probe that allowed sensitive visualisation using micro-SPECT imaging. […] Thereto, the cNGR tripeptide was conjugated with diethylene triamine pentaacetic acid (DTPA), radiolabeled with ^111In and evaluated in a mouse model of myocardial infarction in combination with ^99mTc-sestamibi in dual-isotope micro-SPECT imaging. In order to determine binding spec ...

For the molecule `[C-]#[N+]CC(C)(C)OC.[C-]#[N+]CC(C)(C)OC.[C-]#[N+]CC(C)(C)OC.[C-]#[N+]CC(C)(C)OC.[C-]#[N+]CC(C)(C)OC.[C-]#[N+]CC(C)(C)OC.[Tc]` [^99mTc-sestamibi], the SUV in series [1] (segment 1. Basal anterior, MI mice n = 7, 7 days after LAD ligation, mean ± S.E.M.) is recorded as 1.94 ± 0.36; in series [1] (segment 1. Basal anterior, healthy control mice n = 5, mean ± S.E.M.) it was 1.87 ± 0.34; in series [1] (segment 2. Basal anteroseptal, MI mice n = 7, 7 days after LAD ligation, mean ± S.E.M.), 1.72 ± 0.33; in series [1] (segment 2. Basal anteroseptal, healthy control mice n = 5, mean ± S.E.M.), 1.63 ± 0.28; in series [1] (segment 3. Basal inferoseptal, MI mice n = 7, 7 days after LAD ligation, mean ± S.E.M.) it was 1.38 ± 0.28; in series [1] (segment 3. Basal inferoseptal, healthy control mice n = 5, mean ± S.E.M.), 1.54 ± 0.29. Further, the SUV in series [1] (segment 4. Basal inferior, MI mice n = 7, 7 days after LAD ligation, mean ± S.E.M.) came out at 1.64 ± 0.24; in series [1] (segment 4. Basal inferior, healthy control mice n = 5, mean ± S.E.M.) it was 1.77 ± 0.28; in series [1] (segment 5. Basal inferolateral, MI mice n = 7, 7 days after LAD ligation, mean ± S.E.M.), 1.78 ± 0.31; in series [1] (segment 5. Basal inferolateral, healthy control mice n = 5, mean ± S.E.M.) it was 1.68 ± 0.30; in series [1] (segment 6. Basal anterolateral, MI mice n = 7, 7 days after LAD ligation, mean ± S.E.M.) it was 2.11 ± 0.39; in series [1] (segment 6. Basal anterolateral, healthy control mice n = 5, mean ± S.E.M.) it was 1.95 ± 0.33. Moreover, the SUV in series [1] (segment 7. Mid anterior, MI mice n = 7, 7 days after LAD ligation, mean ± S.E.M.) was 1.18 ± 0.26; in series [1] (segment 7. Mid anterior, healthy control mice n = 5, mean ± S.E.M.), 1.80 ± 0.30; in series [1] (segment 8. Mid anteroseptal, MI mice n = 7, 7 days after LAD ligation, mean ± S.E.M.), 1.73 ± 0.27; in series [1] (segment 8. Mid anteroseptal, healthy control mice n = 5, mean ± S.E.M.), 1.67 ± 0.28; in series [1] (segment 9. Mid inferoseptal, MI mice n = 7, 7 days after LAD ligation, mean ± S.E.M.) it was 1.82 ± 0.30; in series [1] (segment 9. Mid inferoseptal, healthy control mice n = 5, mean ± S.E.M.), 1.80 ± 0.34. The SUV in series [1] (segment 10. Mid inferior, MI mice n = 7, 7 days after LAD ligation, mean ± S.E.M.) was determined as 1.85 ± 0.31; in series [1] (segment 10. Mid inferior, healthy control mice n = 5, mean ± S.E.M.), 1.72 ± 0.28; in series [1] (segment 11. Mid inferolateral, MI mice n = 7, 7 days after LAD ligation, mean ± S.E.M.), 1.60 ± 0.32; in series [1] (segment 11. Mid inferolateral, healthy control mice n = 5, mean ± S.E.M.), 1.71 ± 0.25; in series [1] (segment 12. Mid anterolateral, MI mice n = 7, 7 days after LAD ligation, mean ± S.E.M.), 1.15 ± 0.37; in series [1] (segment 12. Mid anterolateral, healthy control mice n = 5, mean ± S.E.M.), 2.03 ± 0.32. Besides, the SUV in series [1] (segment 13. Apical anterior, MI mice n = 7, 7 days after LAD ligation, mean ± S.E.M.) came out at 0.49 ± 0.10; in series [1] (segment 13. Apical anterior, healthy control mice n = 5, mean ± S.E.M.), 1.64 ± 0.30; in series [1] (segment 14. Apical septal, MI mice n = 7, 7 days after LAD ligation, mean ± S.E.M.) it was 1.55 ± 0.25; in series [1] (segment 14. Apical septal, healthy control mice n = 5, mean ± S.E.M.), 1.82 ± 0.34; in series [1] (segment 15. Apical inferior, MI mice n = 7, 7 days after LAD ligation, mean ± S.E.M.) it was 1.36 ± 0.35; in series [1] (segment 15. Apical inferior, healthy control mice n = 5, mean ± S.E.M.), 1.67 ± 0.28. For the same molecule, the SUV in series [1] (segment 16. Apical lateral, MI mice n = 7, 7 days after LAD ligation, mean ± S.E.M.) is listed as 0.64 ± 0.24; in series [1] (segment 16. Apical lateral, healthy control mice n = 5, mean ± S.E.M.), 1.60 ± 0.30; in series [1] (segment 17. Apex, MI mice n = 7, 7 days after LAD ligation, mean ± S.E.M.), 0.39 ± 0.17; in series [1] (segment 17. Apex, healthy control mice n = 5, mean ± S.E.M.), 1.47 ± 0.34.

On to “oxidised NAc-Cys-Asn-Gly-Arg-Cys-Gly-Gly-Lys-NH2 (disulfide) [cNGR, cyclic(NAc-Cys-Asn-Gly-Arg-Cys-Gly-Gly-Lys), disulfide-cyclised CD13-homing peptide]”, for which the “targeting efficacy relative to the linear entity” value in the series with CD13 was “tenfold higher”.
